# Source: ChEMBL document CHEMBL1201862, “PubChem BioAssay data set” (2004)
#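 Following 48 hours of exposure in 96-well plates, responses at five concentrations were used to interpolate endpoints linearly. GI50 = concentration required for 50% inhibition of growth.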 The source made the active and inactive calls. Rule as the data show it: active = GI50 up to about 1.1 µM and inactive = higher.
# How the values were obtained:
# Test in all cases: NCI-60 cell line screen, 48 h
# [1] = tested on: HCC 2998
# [2] = tested on: RXF 393
# [3] = tested on: U-251
# [4] = tested on: IGROV-1
# [5] = tested on: TK-10
# [6] = tested on: OVCAR-5
# [7] = tested on: HT-29
# [8] = tested on: COLO 205
# [9] = tested on: T47D
# [10] = tested on: 786-0
# [11] = tested on: SR
# [12] = tested on: NCI/ADR-RES
# [13] = tested on: MCF7
# [14] = tested on: UACC-62
# [15] = tested on: NCI-H460
# [16] = tested on: M14
# [17] = tested on: SF-295
# [18] = tested on: PC-3
# [19] = tested on: Malme-3M
# [20] = tested on: SK-MEL-5
# [21] = tested on: SNB-19
# [22] = tested on: A549
# [23] = tested on: OVCAR-3
# [24] = tested on: NCI-H226
# [25] = tested on: NCI-H23
# [26] = tested on: EKVX
# [27] = tested on: BT-549
# [28] = tested on: MDA-MB-435
# [29] = tested on: K562
# [30] = tested on: HCT-116
# [31] = tested on: SW-620
# [32] = tested on: Hs-578T
# [33] = tested on: KM12
# [34] = tested on: RPMI-8226
# [35] = tested on: SK-MEL-28
# [36] = tested on: SK-MEL-2
# [37] = tested on: MDA-N
# [38] = tested on: UACC-257
# [39] = tested on: MDA-MB-231
# [40] = tested on: SN12C
# [41] = tested on: HOP-62
# [42] = tested on: HCT-15
# [43] = tested on: MOLT-4
# [44] = tested on: UO-31
# [45] = tested on: SNB-75
# [46] = tested on: CCRF-CEM
# [47] = tested on: SF-539
# [48] = tested on: CAKI-1
# [49] = tested on: SF-268
# [50] = tested on: OVCAR-4
# [51] = tested on: ACHN
# [52] = tested on: NCI-H522
# [53] = tested on: LOX IMVI
# [54] = tested on: OVCAR-8
# [55] = tested on: SK-OV-3
smiles,measurement,setting,value
CC1=NOC2(C1)/C(=N/O)CCC/C2=N\O (stereo not given),GI50,[1],> 100 µM (inactive)
same,GI50,[2],3.39 µM (inactive)
same,GI50,[3],> 100 µM (inactive)
same,GI50,[4],> 100 µM (inactive)
same,GI50,[5],> 100 µM (inactive)
same,GI50,[6],> 100 µM (inactive)
same,GI50,[7],> 100 µM (inactive)
same,GI50,[8],> 100 µM (inactive)
same,GI50,[9],> 100 µM (inactive)
same,GI50,[10],> 100 µM (inactive)
same,GI50,[11],> 100 µM (inactive)
same,GI50,[12],> 100 µM (inactive)
same,GI50,[13],> 100 µM (inactive)
same,GI50,[14],> 100 µM (inactive)
same,GI50,[15],> 100 µM (inactive)
same,GI50,[16],> 100 µM (inactive)
same,GI50,[17],> 100 µM (inactive)
same,GI50,[18],> 100 µM (inactive)
same,GI50,[19],> 100 µM (inactive)
same,GI50,[20],> 100 µM (inactive)
same,GI50,[21],> 100 µM (inactive)
same,GI50,[22],> 100 µM (inactive)
same,GI50,[23],> 100 µM (inactive)
same,GI50,[24],> 100 µM (inactive)
same,GI50,[25],> 100 µM (inactive)
same,GI50,[26],> 100 µM (inactive)
same,GI50,[27],> 100 µM (inactive)
same,GI50,[28],> 100 µM (inactive)
same,GI50,[29],> 100 µM (inactive)
same,GI50,[30],> 100 µM (inactive)
same,GI50,[31],> 100 µM (inactive)
same,GI50,[32],> 100 µM (inactive)
same,GI50,[33],> 100 µM (inactive)
same,GI50,[34],> 100 µM (inactive)
same,GI50,[35],> 100 µM (inactive)
same,GI50,[36],> 100 µM (inactive)
same,GI50,[37],> 100 µM (inactive)
same,GI50,[38],> 100 µM (inactive)
same,GI50,[39],> 100 µM (inactive)
same,GI50,[40],> 100 µM (inactive)
same,GI50,[41],> 100 µM (inactive)
same,GI50,[42],> 100 µM
same,GI50,[43],> 100 µM (inactive)
same,GI50,[44],> 100 µM (inactive)
same,GI50,[45],> 100 µM (inactive)
same,GI50,[46],> 100 µM (inactive)
same,GI50,[47],> 100 µM (inactive)
same,GI50,[48],> 100 µM (inactive)
same,GI50,[49],> 100 µM (inactive)
same,GI50,[50],> 100 µM (inactive)
same,GI50,[51],> 100 µM (inactive)
same,GI50,[52],> 100 µM (inactive)
same,GI50,[53],> 100 µM (inactive)
same,GI50,[54],> 100 µM (inactive)
same,GI50,[55],> 100 µM (inactive)
